From patent US10526343B2, “Heterocyclic systems and pharmaceutical applications thereof” (University of Sharjah, priority 2018, dated 2020)
Values after ≈ are worked out from the molar mass of the structure shown.

Legend:
Assay type in all cases: cell-based
[1] = system: S. aureus (ATCC 25923); test: MIC by broth microdilution; settings: Staphylococcus aureus, ATCC25923
Method: (§1) Bacteria of the genus Staphylococcus were selected for MIC investigation due to its clinical importance. Compounds showing activity against S. aureus (ATCC 25923) were tested against 10 multidrug-resistant strains of Staphylococcus species, including: clinical isolates methicillin-resistant Staphylococcus aureus (MRSA) strains MRSA-1, MRSA-2, and MRSA-3, and environmental isolates S. saprophyticus (strains UDH-1, UDH-2, UDH-3 and UDH-4), S. haemolyticus (strains UDH-6 and UDH-7), and S. epidermidis strain UDH-5.
(§2) A broth microdilution method was used to measure MIC according to the Clinical and Laboratory Standards Institute guidelines. Two-fold serial dilutions of the test compound (8 concentrations ranged between 100-0.78 μg/mL) were tested. Two reference antibiotics were used as quality controls (ciprofloxacin and amikacin). In each experiment, solvent (DMSO) was used as a negative control, un-treated control (composing of bacteria in Mueller-Hinton broth) was used as a growth control, blank (culture media alone) was used as sterility control. The 96-well microplate with the test compounds was incubated for 20 hours at 37° C. Turbidity in wells indicated bacterial growth. […] For the definite determination of MIC, CellTiter-Blue® Cell Viability Assay (Promega, USA) was used (as above). The MIC was defined as the lowest compound concentration that prevented the color change of the Cell Viability solution (absence of bacterial growth; thus, suspension remained blue in color). For the definite determination of MIC, CellTiter-Blue® Cell Viability Assay (Promega, USA) was used (as above). To each well of the 96-well microplate, 20 μL of the Cell Viability Assay solution was added to the overnight (20 hours culture) and incubated at 37° C. for 4 hours. After the end of the incubation, pink and blue colors were used to differentiate viable from dead bacterial suspensions, respectively. The MIC was defined as the lowest compound concentration that prevented the color change.

[2] = system: Staphylococcus aureus (ATCC 25923); test: Cell viability assay (resazurin) screening for antibacterial activity; set-up: key: Positive: A positive result indicates antibacterial activity expressed as growth inhibition; Negative: a negative result indicates no antibacterial activity expressed as bacterial growth at the tested concentration; settings: single high concentration of 1 mg/mL
[3] = system: Pseudomonas aeruginosa (ATCC 27853); test: as above; set-up: key: Positive: A positive result indicates antibacterial activity expressed as growth inhibition; Negative: a negative result indicates no antibacterial activity expressed as bacterial growth at the tested concentration; settings: single high concentration of 1 mg/mL
[4] = system: MRSA-3 (clinical isolate, methicillin-resistant Staphylococcus aureus); test: MIC by broth microdilution
Method: (§3) Bacteria of the genus Staphylococcus were selected for MIC investigation due to its clinical importance.
as §2, with “Two reference antibiotics were used as quality controls (ciprofloxacin and amikacin).” left out

[5] = system: MRSA-1 (clinical isolate, methicillin-resistant Staphylococcus aureus); test: MIC by broth microdilution; settings: for MIC: Staphylococcus aureus, MRSA, clinical isolate
Method: as §3
as §2, with “Two reference antibiotics were used as quality controls (ciprofloxacin and amikacin).” left out

[6] = system: MRSA-2 (clinical isolate, methicillin-resistant Staphylococcus aureus); test: MIC by broth microdilution
Method: as §3
as §2, with “Two reference antibiotics were used as quality controls (ciprofloxacin and amikacin).” left out

[7] = system: Bacillus subtilis (environmental isolate); test: Cell viability assay (resazurin) screening for antibacterial activity; set-up: key: Positive: A positive result indicates antibacterial activity expressed as growth inhibition; Negative: a negative result indicates no antibacterial activity expressed as bacterial growth at the tested concentration; settings: single high concentration of 1 mg/mL
[8] = system: UDH-5 (environmental isolate, S. epidermidis); test: MIC by broth microdilution; settings: Staphylococcus epidermidis
Method: as §1
(§4) All these strains were resistant to at least three antibiotics from different classes, as confirmed by a disk diffusion assay.
as §2

[9] = system: UDH-7 (environmental isolate, S. haemolyticus); test: MIC by broth microdilution; settings: for MIC: Staphylococcus haemolyticus, environmental isolate
Method: as §1, §4, §2

[10] = system: UDH-6 (environmental isolate, S. haemolyticus); test: MIC by broth microdilution; settings: for MIC: Staphylococcus haemolyticus, environmental isolate
Method: as §1, §4, §2

[11] = system: UDH-3 (environmental isolate, S. saprophyticus); test: MIC by broth microdilution; settings: for MIC: Staphylococcus saprophyticus, environmental isolate; for times lower than MIC of ciprofloxacin: UDH-3
Method: as §1, §4, §2

[12] = system: UDH-1 (environmental isolate, S. saprophyticus); test: MIC by broth microdilution; settings: for MIC: Staphylococcus saprophyticus, environmental isolate; for times lower than MIC of ciprofloxacin: UDH-1
Method: as §1, §4, §2

[13] = system: UDH-2 (environmental isolate, S. saprophyticus); test: MIC by broth microdilution; settings: Staphylococcus saprophyticus
Method: as §1, §4, §2

[14] = system: UDH-4 (environmental isolate, S. saprophyticus); test: MIC by broth microdilution; settings: Staphylococcus saprophyticus
Method: as §1, §4, §2

[15] = system: Enterococcus faecalis (ATCC 29212); test: Cell viability assay (resazurin) screening for antibacterial activity; set-up: key: Positive: A positive result indicates antibacterial activity expressed as growth inhibition; Negative: a negative result indicates no antibacterial activity expressed as bacterial growth at the tested concentration; settings: single high concentration of 1 mg/mL
[16] = system: Escherichia coli (ATCC 25922); test: as above; set-up: key: Positive: A positive result indicates antibacterial activity expressed as growth inhibition; Negative: a negative result indicates no antibacterial activity expressed as bacterial growth at the tested concentration; settings: single high concentration of 1 mg/mL

| SMILES | MIC [1] | antibacterial activity, Staphylococcus aureus [2] | antibacterial activity, Pseudomonas aeruginosa [3] | MIC [4] | MIC [5] | MIC [6] | antibacterial activity, Bacillus subtilis [7] | MIC [8] | MIC [9] | MIC [10] | MIC [11] | MIC [12] | times lower than MIC of ciprofloxacin [12] | MIC [13] | MIC [14] | antibacterial activity, Enterococcus faecalis [15] | antibacterial activity, Escherichia coli [16] | also measured |
| --- | --- | --- | --- | --- | --- | --- | --- | --- | --- | --- | --- | --- | --- | --- | --- | --- | --- | --- |
| COC(=O)CC1COc2c(cc3c4c2CCCN4CCC3)-c2c(NC(C)(C)C)n3c(-c4ccc(Cl)cc4Cl)c(C)sc3[n+]21 (stereo not drawn) [Compound 1x] | 3.12 µg/mL | Positive | Negative | 6.25 µg/mL | 6.25 µg/mL | 6.25 µg/mL | Positive | 1.56 µg/mL | 12.5 µg/mL | 6.25 µg/mL | 6.25 µg/mL | 6.25 µg/mL | approximately 10 times | 6.25 µg/mL | 3.12 µg/mL | Positive |  |  |
| COC(=O)CC1COc2c(cc3c4c2CCCN4CCC3)-c2c(N)n3c(-c4ccc(F)cc4)c(C)sc3[n+]21 (stereo not drawn) [Compound 2b] | 12.5 µg/mL | Positive | Negative | 12.5 µg/mL | 12.5 µg/mL | 12.5 µg/mL | Positive | 6.25 µg/mL | 25 µg/mL | 25 µg/mL | 25 µg/mL | 12.5 µg/mL |  | 12.5 µg/mL | 12.5 µg/mL | Positive | Negative |  |
| COC(=O)CC1COc2c(cc3c4c2CCCN4CCC3)-c2c(NC(C)(C)C)n3c(-c4cccc5c4OCO5)c(C)sc3[n+]21 (stereo not drawn) [Compound 1u] | 3.12 µg/mL | Positive | Negative | 3.12 µg/mL | 3.12 µg/mL | 3.12 µg/mL | Positive | 1.56 µg/mL | 6.25 µg/mL | 6.25 µg/mL | 3.12 µg/mL | 6.25 µg/mL | approximately 10 times | 6.25 µg/mL | 6.25 µg/mL | Positive | Negative | times lower than the MIC of ciprofloxacin ([5]; MRSA-1): approximately 10 times; times lower than MIC of ciprofloxacin ([9]; UDH-7): approximately 10 times; times lower than MIC of ciprofloxacin ([10]; UDH-6): approximately 10 times; times lower than MIC of ciprofloxacin [11]: approximately 20 times |
| CCN(CC)c1ccc2c(c1)OCC(CC(=O)OC)[n+]1c-2c(NC(C)(C)C)n2c(-c3ccc(OC)cc3)c(-c3ccc(OC)cc3)sc21 (stereo not drawn) [Compound 1h] | 6.25 µg/mL | Positive | Negative | 3.12 µg/mL | 6.25 µg/mL | 6.25 µg/mL | Positive | 1.56 µg/mL | 12.5 µg/mL | 6.25 µg/mL | 3.12 µg/mL | 6.25 µg/mL | approximately 10 times | 6.25 µg/mL | 6.25 µg/mL | Positive | Negative | times lower than MIC of ciprofloxacin [11]: approximately 20 times |
| COC(=O)CC1COc2c(cc3c4c2CCCN4CCC3)-c2c(NC(C)(C)C)n3c(-c4cc(OC)ccc4OC)csc3[n+]21 (stereo not drawn) [Compound 1t] | 3.12 µg/mL | Positive | Negative | 3.12 µg/mL | 6.25 µg/mL | 3.12 µg/mL | Positive | 3.12 µg/mL | 12.5 µg/mL | 12.5 µg/mL | 6.25 µg/mL | 6.25 µg/mL | approximately 10 times | 6.25 µg/mL | 6.25 µg/mL | Positive | Negative |  |
| COC(=O)CC1COc2c(cc3c4c2CCCN4CCC3)-c2c(NC(C)(C)C)n3c4ccc(Br)cc4sc3[n+]21 (stereo not drawn) [Compound 1v] | 12.5 µg/mL | Positive | Negative | 12.5 µg/mL | 12.5 µg/mL | 12.5 µg/mL | Positive | 6.25 µg/mL | 50 µg/mL | 50 µg/mL | 12.5 µg/mL | 12.5 µg/mL |  | 25 µg/mL | 25 µg/mL | Positive | Negative |  |
| COC(=O)CC1COc2c(cc3c4c2CCCN4CCC3)-c2c(NC(C)(C)C)n3c(-c4ccc(Br)cc4)csc3[n+]21 (stereo not drawn) [Compound 1q] | 3.12 µg/mL | Positive | Negative | 6.25 µg/mL | 6.25 µg/mL | 6.25 µg/mL | Positive | 3.12 µg/mL | 12.5 µg/mL | 12.5 µg/mL | 12.5 µg/mL | 6.25 µg/mL | approximately 10 times | 6.25 µg/mL | 3.12 µg/mL | Positive | Negative |  |
| NCC[C@H](O)C(=O)N[C@@H]1C[C@H](N)[C@@H](O[C@H]2O[C@H](CN)[C@@H](O)[C@H](O)[C@H]2O)[C@H](O)[C@H]1O[C@H]1O[C@H](CO)[C@@H](O)[C@H](N)[C@H]1O [Amikacin, amikacin, reference compound] | 4 µg/mL (≈ 6.83 µM) |  |  | 2 µg/mL (≈ 3.42 µM) | 16 µg/mL (≈ 27.3 µM) | 8 µg/mL (≈ 13.7 µM) |  | < 0.25 µg/mL | 4 µg/mL (≈ 6.83 µM) | 4 µg/mL (≈ 6.83 µM) | 0.5 µg/mL (≈ 0.854 µM) | 8 µg/mL (≈ 13.7 µM) |  | 0.25 µg/mL (≈ 0.427 µM) | < 0.25 µg/mL |  |  |  |
